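The compound was tested at five concentrations on cells cultured in 96-well plates, with a 48-hour exposure period. At the GI50, growth is halved. Definition used: TGI = concentration required for complete inhibition of growth.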
Experiments:
Test in all cases: inhibition of tumour cell growth, NCI panel, 48 h
SF-295 CNS = tested on: SF-295 CNS
MALME-3M melanoma = tested on: MALME-3M melanoma
HT29 colon = tested on: HT29 colon
ACHN renal = tested on: ACHN renal
IGROV1 ovarian = tested on: IGROV1 ovarian
HCC-2998 colon = tested on: HCC-2998 colon
HL-60(TB) leukemia = tested on: HL-60(TB) leukemia
NCI-H522 lung = tested on: NCI-H522 lung
SK-MEL-28 melanoma = tested on: SK-MEL-28 melanoma
PC-3 prostate = tested on: PC-3 prostate

SMILES | GI50 (SF-295 CNS) [µM] | TGI (SF-295 CNS) [µM] | GI50 (MALME-3M melanoma) [µM] | TGI (MALME-3M melanoma) [µM] | GI50 (HT29 colon) [µM] | TGI (HT29 colon) [µM] | GI50 (ACHN renal) [µM] | TGI (ACHN renal) [µM] | GI50 (IGROV1 ovarian) [µM] | TGI (IGROV1 ovarian) [µM] | GI50 (HCC-2998 colon) [µM] | TGI (HCC-2998 colon) [µM] | GI50 (HL-60(TB) leukemia) [µM] | TGI (HL-60(TB) leukemia) [µM] | GI50 (NCI-H522 lung) [µM] | TGI (NCI-H522 lung) [µM] | GI50 (SK-MEL-28 melanoma) [µM] | TGI (SK-MEL-28 melanoma) [µM] | TGI (PC-3 prostate) [µM] | GI50 (PC-3 prostate) [µM]
CC(C)=C[C@@H]1C[C@H](C)[C@H]2CC[C@H](C)c3c(O)c(OC4OC(C)C(O)C(O)C4O)c(C)c1c32 (stereo partly specified) | 15.9 | 30.9 | 12.9 | 29.8 | 4.07 | 15.6 | 14.1 | 27.1 | 13.7 | 26.8 | 0.734 | 3.97 | 10.4 | 25.7 | 16.1 | 29.8 | 18.1 | 32.1 | – | –
Fc1ccccc1CN1COc2c(cc(Cl)c3cccnc23)C1 | – | 12.1 | – | 12.2 | – | 20.4 | – | 10.3 | – | 18.6 | – | – | – | 10.4 | – | 14.1 | – | 18.7 | 10.6 | –
COC(=O)C1=NC(=S)NC(c2ccccc2)C1c1nc2ccccc2o1 (stereo unspecified) | – | > 50 | – | > 50 | – | > 50 | – | > 50 | – | > 50 | – | > 50 | – | > 50 | – | > 50 | – | – | – | –
COc1ccc(/C=C/C(=O)c2c(-c3ccccc3)nn(C)c(=O)c2N2CC2C)cc1 (stereo unspecified) | – | > 100 | – | > 100 | – | > 100 | – | > 100 | – | > 100 | – | 66.6 | – | 60.2 | – | 67.1 | – | > 100 | – | –
FC(F)(F)c1ccccc1C1SCc2nc3ccccc3n21 (stereo unspecified) | – | > 100 | – | > 100 | – | > 100 | – | > 100 | – | > 100 | – | > 100 | – | 47 | – | > 100 | – | > 100 | – | –
COC(=O)C(=O)C(C(=O)C(=O)Nc1ccc([N+](=O)[O-])cc1)c1nc2ccccc2[nH]c1=O (stereo unspecified) | – | – | – | > 100 | – | > 100 | – | > 100 | – | > 100 | – | – | – | > 100 | – | > 100 | – | > 100 | – | –
Nc1nc(SCc2ccccc2CCl)c2[nH]cnc2n1 | 18.7 | 56 | 12.5 | 28.8 | 17.1 | 35.6 | 18.6 | 74.6 | 14.5 | 47.9 | 18.8 | 33.3 | – | – | – | – | 17.7 | 49.7 | > 100 | 25.1
O=C(/C=C/c1ccccc1)c1ccc(Cl)cc1Cl | – | 41.2 | – | 46.1 | – | 32.9 | – | 34.1 | – | 40.5 | – | 40.9 | – | 36.2 | – | 28.3 | – | – | – | –
COC(=O)CC1(O)C(=O)OCc2c1cc1n(c2=O)Cc2c-1nc1ccccc1c2OC (stereo unspecified) | – | 17.5 | – | > 100 | – | > 100 | – | 1.02 | – | > 74.3 | – | > 100 | – | 0.778 | – | 16.3 | – | > 100 | – | –
O=C(/C=C/c1ccc(O)c(O)c1)N1CCN(c2ccc(Cl)cc2)CC1 | 19.1 | > 100 | 11.1 | 57.5 | 13.1 | 32 | 4.01 | 38.2 | 4.5 | 80.5 | 10.5 | 23.8 | – | – | 1.83 | 12.6 | 11.5 | 58.5 | 31.1 | 4.67

Source: PubChem BioAssay (NCI)
